Results from publication PMC9196629, “Synthesis, Characterization and Antitumor Mechanism Investigation of Heterometallic Ru(Ⅱ)-Re(Ⅰ) Complexes” (Frontiers in Chemistry, 2022).

Tests used:
[1] = tested on: A549 (human lung cancer cells); assay: MTT cytotoxicity assay; format: cell-based; conditions: 48 h incubation, mean ± SD
Procedure: (§1) The anticancer activities of RuRe-1 and RuRe-2 against four cancer cell lines: HeLa (human cervical cancer cells), HepG2 (human hepatocellular carcinoma), A549 (human lung cancer cells), A549R (cisplatin-resistant A549) and one normal cell line LO2 (human normal liver cells) were determined by 3-(4,5-dimethylthiazole)-2,5-diphenyltetraazolium bromide (MTT) assay, while the mononuclear complexes Ru-1, Ru-2, Re-1 and cisplatin were selected as controls. […] And the in vitro antiproliferative efficacies of the compounds against HeLa cells were in the following order: RuRe-2 > RuRe-1 > Re-1 > cisplatin > Ru-1 > Ru-2. […] The anticancer activity of the mononuclear rhenium complex Re-1 was between 5.6 μM and 8.0 μM, which contributed the most to the antitumor activities of the heteronuclear Ru(II)-Re(Ⅰ) metal complexes.
(§2) Cell lines and culture conditions. HeLa, HepG2, A549, A549R and LO2 cells were purchased from Nanjing KeyGen Biotech., and cultured in DMEM or RPMI 1640 complete medium at 37 ℃ with 5% CO2 atmosphere.
(§3) In vitro cytotoxicity assay. The anti-tumor activity of mononuclear complexes Ru-1, Ru-2, Re-1 and heteronuclear RuRe-1 and RuRe-2 were determined by MTT (5 mg/mL) assay. Cells were placed in 96-well plates and cultured for 24 h at 37 ℃ in a 5% CO2 incubator. After replacing the culture medium with fresh medium containing RuRe-1 or RuRe-2 at the indicated concentration, cells were cultured for 48 h. 20 μL MTT was added to each well 4 h before the end of the incubation. Subsequently, the liquid in the cell wells was poured out and 150 μL/well DMSO was added to dissolve the MTT-formazan crystals. The absorbance of living cells at 570 nm was detected.

[2] = tested on: HeLa (human cervical cancer cells); assay: MTT cytotoxicity assay; format: cell-based; conditions: 48 h incubation, mean ± SD
Procedure: as §1, §2, §3

[3] = tested on: HepG2 (human hepatocellular carcinoma); assay: MTT cytotoxicity assay; format: cell-based; conditions: 48 h incubation, mean ± SD
Procedure: as §1, §2, §3

[4] = tested on: LO2 (human normal liver cells); assay: MTT cytotoxicity assay; format: cell-based; conditions: 48 h incubation, mean ± SD
Procedure: as §1, §2, §3

[5] = tested on: A549R (cisplatin-resistant A549); assay: MTT cytotoxicity assay; format: cell-based, human; conditions: MTT, 48 h incubation, mean ± SD
Procedure: as §1, §2, §3

[6] = tested on: HeLa, HepG2, A549, A549R cancer cell lines; assay: MTT cytotoxicity assay, summary over the cell lines screened; format: cell-based, human; conditions: 48 h
Procedure: as §1
as §3, with “Subsequently, the liquid in the cell wells was poured out and 150 μL/well DMSO was added to dissolve the MTT-formazan crystals.” left out

SMILES | IC50 [1] | IC50 [2] | IC50 [3] | IC50 [4] | IC50 [5] | antitumor activity against all cancer cell lines screened [6]
F[P-](F)(F)(F)(F)F.F[P-](F)(F)(F)(F)F.[Ru+2].c1ccc(-c2ccccn2)nc1.c1ccc(-c2ccccn2)nc1.c1cnc2c(c1)c1nc(-c3ccncc3)[nH]c1c1cccnc12 [Ru-1, reference compound] | > 50 µM | 39.8 ± 0.6 µM | > 50 µM | > 50 µM | > 50 µM | negligible antitumor activity
N.N.[Cl][Pt][Cl] [Cisplatin, reference compound] | 25.9 ± 0.8 µM | 19.3 ± 0.5 µM | 23.5 ± 2 µM | 22.5 ± 2 µM | 90.3 ± 0.3 µM | 
F[P-](F)(F)(F)(F)F.F[P-](F)(F)(F)(F)F.c1cc2ccc3ccc[n+]4c3c2[n+](c1)[Ru-4]412([n+]3cccc4ccc5ccc[n+]1c5c43)[n+]1cccc3c4nc(-c5ccncc5)[nH]c4c4ccc[n+]2c4c31 [Ru-2] | > 50 µM | 43.6 ± 1.2 µM | > 50 µM | > 50 µM | > 50 µM | negligible antitumor activity
